The term IC50 denotes the concentration at which inhibition is half-maximal.

The target of assay [1] is glucosylceramide synthase (GCS) (Homo sapiens (Human), UniProt Q16739). Description: Evaluation of inhibitory activities against GCS (A549 cell lysate, NBD C6-ceramide, HPLC). The assay is classed as biochemical. The procedure:
The inhibitory activities of the compounds of the present invention against GCS were evaluated, as follows, according to the method described in the known literature (Hayashi Y et al., A sensitive and reproducible assay to measure the activity of glucosylceramide synthase and lactosylceramide synthase using HPLC and fluorescent substrates, Analytical Biochemistry 345 (2005) 181-186). Ibiglustat, known as a GCS inhibitor, was used as a control.
After the cells attached to the culture dish were washed with phosphate buffered saline (PBS), the cells were scraped off with a cell scraper and then centrifuged (4000 rpm, 3 min, 4 °C) to collect the cells in a 50 ml tube. The cell pellets were suspended in a lysis buffer (50 mM HEPES, pH 7.3, containing 1× the protease/phosphatase inhibitor cocktail), lysed by sonication, and then the lysate was centrifuged (13000 rpm, 10 min, 4° C.). The obtained supernatant was used for the quantitative analysis of proteins. The amount of proteins was measured using the BCA protein assay kit, using bovine serum albumin as a standard.
Enzymatic reactions were initiated by sequentially adding the following reaction materials to a 96 deep-well plate. Thereafter, the enzymatic reactions were performed at 37° C. for 90 minutes.
The enzymatic reactions were stopped by adding 100 μl of chloroform/methanol (2:1, v/v). […] The lower layer (50 μl) was transferred to a new 96 deep-well plate and dried with a reduced concentrator.
Lipids were dissolved in 100 μl of isopropyl alcohol/n-hexane/H2O (55:44:1, v/v/v) and then transferred to a glass vial for HPLC (Agilent, 8004-HP-H/i3u). The sample (100 μl) was automatically loaded onto a normal-phase column (Intersil SIL 150A-5, 4.6×250 mm, GL Sciences, Japan) and then eluted at a flow rate of 2.0 ml/min with isopropyl alcohol/n-hexane/H2O (55:44:1, v/v/v). The fluorescence thereof was measured with a fluorescence detector (Agilent, 1260 FLD Spectra), using 470 nm and 530 nm as excitation and emission wavelengths, respectively.
Data analysis was performed by the following equations.
% Area (Sample)=Area (GlcCer)/[Area (Cer)+Area (GlcCer)]×100%
GCS activity=[Area (Sample)−Area (ibiglustat)]/[Area (DMSO)−Area (ibiglustat)]×100
The obtained % GCS activity data was analyzed with the software GraphPad Prism (Ver 5.01) to calculate the IC50 values.

Assay [2] relates to GM1 production in Jurkat cells. The assay can be described thus: cells. Type of assay: cell-based. To be noted: Homo sapiens, Jurkat, 72 h.

Sequence of glucosylceramide synthase (GCS) (Q16739 whole entry): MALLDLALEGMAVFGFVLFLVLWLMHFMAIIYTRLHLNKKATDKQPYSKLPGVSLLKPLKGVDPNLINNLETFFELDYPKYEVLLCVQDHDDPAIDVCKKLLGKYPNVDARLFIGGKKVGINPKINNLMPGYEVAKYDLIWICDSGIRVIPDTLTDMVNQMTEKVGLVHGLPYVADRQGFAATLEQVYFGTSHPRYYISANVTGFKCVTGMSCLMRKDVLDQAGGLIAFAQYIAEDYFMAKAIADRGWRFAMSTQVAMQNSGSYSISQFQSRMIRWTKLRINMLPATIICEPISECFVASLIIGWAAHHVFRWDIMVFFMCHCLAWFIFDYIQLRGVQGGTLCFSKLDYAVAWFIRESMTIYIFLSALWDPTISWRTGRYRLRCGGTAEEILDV

As for `CCCc1cccc(-c2cc3c(cc2F)[C@H](NC(=O)O[C@@H]2CN4CCC2CC4)C(C)(C)C3)c1` [Example 72, (S)-quinuclidin-3-yl((R)-6-fluoro-2,2-dimethyl-5-(3-propylphenyl)-2,3-dihydro-1H-inden-1-yl)carbamate], the half-maximal inhibitory concentration (IC50) in assay [1] turned out to be 1.19 nM; in assay [2], 15.9 nM.

Regarding `COc1ccc(-c2cc3c(cc2F)[C@H](NC(=O)O[C@@H]2CN4CCC2CC4)C(C)(C)C3)cc1Cl` [Example 85, (S)-quinuclidin-3-yl((R)-5-(3-chloro-4-methoxyphenyl)-6-fluoro-2,2-dimethyl-2,3-dihydro-1H-inden-1-yl)carbamate], the IC50 in assay [1] turned out to be 0.818 nM; in assay [2], 66.7 nM.

`CCCCOc1ccc(-c2cc3c(cc2F)[C@H](NC(=O)O[C@@H]2CN4CCC2CC4)C(C)(C)C3)cc1Cl` [Example 88, (S)-quinuclidin-3-yl((R)-5-(4-butoxy-3-chlorophenyl)-6-fluoro-2,2-dimethyl-2,3-dihydro-1H-inden-1-yl)carbamate]: the half-inhibitory concentration (IC50) in assay [1] came out at 0.779 nM; in assay [2], 21.1 nM.

For the compound `CCCOc1ccc(-c2cc3c(cc2F)[C@H](NC(=O)O[C@@H]2CN4CCC2CC4)C(C)(C)C3)cc1F` [Example 91, (S)-quinuclidin-3-yl((R)-6-fluoro-5-(3-fluoro-4-propoxyphenyl)-2,2-dimethyl-2,3-dihydro-1H-inden-1-yl)carbamate], the IC50 stood at 0.329 nM in assay [1] and 10.7 nM in assay [2].

Consider `CCc1ccc(-c2cc3c(cc2F)[C@H](NC(=O)O[C@@H]2CN4CCC2CC4)C(C)(C)C3)cc1F` [Example 93, (S)-quinuclidin-3-yl((R)-5-(4-ethyl-3-fluorophenyl)-6-fluoro-2,2-dimethyl-2,3-dihydro-1H-inden-1-yl)carbamate], for which the concentration for half-maximal inhibition (IC50) was 0.37 nM in assay [1] and 5.6 nM in assay [2].

On to `Cc1cc(-c2cc3c(cc2F)[C@H](NC(=O)O[C@@H]2CN4CCC2CC4)C(C)(C)C3)ccc1OC(C)C` [Example 94, (S)-quinuclidin-3-yl((R)-6-fluoro-5-(4-isopropoxy-3-methylphenyl)-2,2-dimethyl-2,3-dihydro-1H-inden-1-yl)carbamate], for which the half-inhibitory concentration (IC50) was 0.52 nM in assay [1] and 12.1 nM in assay [2].

As to `COc1cc(-c2cc3c(cc2F)[C@H](NC(=O)O[C@@H]2CN4CCC2CC4)C(C)(C)C3)ccc1OC(C)C` [Example 95, (S)-quinuclidin-3-yl((R)-6-fluoro-5-(4-isopropoxy-3-methoxyphenyl)-2,2-dimethyl-2,3-dihydro-1H-inden-1-yl)carbamate], the IC50 was 1.14 nM in assay [1] and 18.2 nM in assay [2].

For the compound `CC(C)Oc1c(F)cc(-c2cc3c(cc2F)[C@H](NC(=O)O[C@@H]2CN4CCC2CC4)C(C)(C)C3)cc1F` [Example 97, (S)-quinuclidin-3-yl((R)-5-(3,5-difluoro-4-isopropoxyphenyl)-6-fluoro-2,2-dimethyl-2,3-dihydro-1H-inden-1-yl)carbamate], the figures for the concentration for half-maximal inhibition (IC50) in assay [1] and in assay [2] were 1.06 nM and 13 nM, respectively.

Turning to `CC1(C)Cc2cc(-c3ccc(OCC4CC4)cc3Cl)c(F)cc2[C@@H]1NC(=O)O[C@@H]1CN2CCC1CC2` [Example 98, (S)-quinuclidin-3-yl((R)-5-(2-chloro-4-(cyclopropylmethoxy)phenyl)-6-fluoro-2,2-dimethyl-2,3-dihydro-1H-inden-1-yl)carbamate], the IC50 in assay [1] worked out at 0.06 nM; in assay [2], 0.2 nM.

On to `CC1(C)Cc2cc(-c3ccc(OCC4CC4)c(Cl)c3)c(F)cc2[C@@H]1NC(=O)O[C@@H]1CN2CCC1CC2` [Example 99, (S)-quinuclidin-3-yl((R)-5-(3-chloro-4-(cyclopropylmethoxy)phenyl)-6-fluoro-2,2-dimethyl-2,3-dihydro-1H-inden-1-yl)carbamate], for which the IC50 in assay [1] amounted to 0.67 nM; in assay [2] it was 8.84 nM.

As for `CC(C)Oc1c(Cl)cc(-c2cc3c(cc2F)[C@H](NC(=O)O[C@@H]2CN4CCC2CC4)C(C)(C)C3)cc1Cl` [Example 100, (S)-quinuclidin-3-yl((R)-5-(3,5-dichloro-4-isopropoxyphenyl)-6-fluoro-2,2-dimethyl-2,3-dihydro-1H-inden-1-yl)carbamate], the IC50 in assay [1] worked out at 4.58 nM; in assay [2] it was 16.2 nM.

As to `CC(C)(C)Oc1ccc(-c2cc3c(cc2F)[C@H](NC(=O)O[C@@H]2CN4CCC2CC4)C(C)(C)C3)cc1` [Example 101, (S)-quinuclidin-3-yl((R)-5-(4-(tert-butoxy)phenyl)-6-fluoro-2,2-dimethyl-2,3-dihydro-1H-inden-1-yl)carbamate], the IC50 in assay [1] came out at 0.38 nM; in assay [2] it was 4.67 nM.

On to `CC(C)(C)Oc1ccc(-c2cc3c(cc2F)[C@H](NC(=O)O[C@@H]2CN4CCC2CC4)C(C)(C)C3)c(Cl)c1` [Example 102, (S)-quinuclidin-3-yl((R)-5-(4-(tert-butoxy)-2-chlorophenyl)-6-fluoro-2,2-dimethyl-2,3-dihydro-1H-inden-1-yl)carbamate], for which the IC50 in assay [1] was 0.19 nM; in assay [2], 1.6 nM.

In the case of `CCOc1ccc(-c2cc3c(cc2F)[C@H](NC(=O)O[C@@H]2CN4CCC2CC4)C(C)(C)C3)cc1C` [Example 105, (S)-quinuclidin-3-yl((R)-5-(4-ethoxy-3-methylphenyl)-6-fluoro-2,2-dimethyl-2,3-dihydro-1H-inden-1-yl)carbamate], the 50% inhibitory concentration (IC50) was 0.72 nM in assay [1] and 8.2 nM in assay [2].

Turning to `CCCOc1ccc(-c2cc3c(cc2F)[C@H](NC(=O)O[C@@H]2CN4CCC2CC4)C(C)(C)C3)cc1C` [Example 106, (S)-quinuclidin-3-yl((R)-6-fluoro-2,2-dimethyl-5-(3-methyl-4-propoxyphenyl)-2,3-dihydro-1H-inden-1-yl)carbamate], the IC50 was found to be 0.61 nM in assay [1] and 2.3 nM in assay [2].

Turning to `Cc1cc(-c2cc3c(cc2F)[C@H](NC(=O)O[C@@H]2CN4CCC2CC4)C(C)(C)C3)ccc1OC(F)F` [Example 107, (S)-quinuclidin-3-yl((R)-5-(4-(difluoromethoxy)-3-methylphenyl)-6-fluoro-2,2-dimethyl-2,3-dihydro-1H-inden-1-yl)carbamate], the IC50 in assay [1] came out at 0.93 nM; in assay [2], 16 nM.

`CC(C)Oc1cc(F)cc(-c2cc3c(cc2F)[C@H](NC(=O)O[C@@H]2CN4CCC2CC4)C(C)(C)C3)c1` [Example 108, (S)-quinuclidin-3-yl((R)-6-fluoro-5-(3-fluoro-5-isopropoxyphenyl)-2,2-dimethyl-2,3-dihydro-1H-inden-1-yl)carbamate]: the values for the IC50 in assay [1] and in assay [2] were 1.06 nM and 31.6 nM, respectively.

As for `CC(C)COc1cc(F)cc(-c2cc3c(cc2F)[C@H](NC(=O)O[C@@H]2CN4CCC2CC4)C(C)(C)C3)c1` [Example 109, (S)-quinuclidin-3-yl((R)-6-fluoro-5-(3-fluoro-5-isobutoxyphenyl)-2,2-dimethyl-2,3-dihydro-1H-inden-1-yl)carbamate], the IC50 worked out at 0.69 nM in assay [1] and 11.5 nM in assay [2].

Take `CC1(C)Cc2cc(-c3cc(F)cc(OCC(F)(F)F)c3)c(F)cc2[C@@H]1NC(=O)O[C@@H]1CN2CCC1CC2` [Example 110, (S)-quinuclidin-3-yl((R)-6-fluoro-5-(3-fluoro-5-(2,2,2-trifluoroethoxy)phenyl)-2,2-dimethyl-2,3-dihydro-1H-inden-1-yl)carbamate]: the half-maximal inhibitory concentration (IC50) stood at 1.05 nM in assay [1] and 28 nM in assay [2].

On to `CC(C)Oc1cc(-c2cc3c(cc2F)[C@H](NC(=O)O[C@@H]2CN4CCC2CC4)C(C)(C)C3)ccc1Cl` [Example 111, (S)-quinuclidin-3-yl((R)-5-(4-chloro-3-isopropoxyphenyl)-6-fluoro-2,2-dimethyl-2,3-dihydro-1H-inden-1-yl)carbamate], for which the IC50 in assay [1] was found to be 7.13 nM; in assay [2], 76.2 nM.

`CC(C)COc1cc(Cl)cc(-c2cc3c(cc2F)[C@H](NC(=O)O[C@@H]2CN4CCC2CC4)C(C)(C)C3)c1` [Example 112, (S)-quinuclidin-3-yl((R)-5-(3-chloro-5-isobutoxyphenyl)-6-fluoro-2,2-dimethyl-2,3-dihydro-1H-inden-1-yl)carbamate]: the values for the concentration for half-maximal inhibition (IC50) in assay [1] and in assay [2] were 1.03 nM and 10.6 nM, respectively.

With `CC(C)Oc1cc(Cl)cc(-c2cc3c(cc2F)[C@H](NC(=O)O[C@@H]2CN4CCC2CC4)C(C)(C)C3)c1` [Example 113, (S)-quinuclidin-3-yl((R)-5-(3-chloro-5-isopropoxyphenyl)-6-fluoro-2,2-dimethyl-2,3-dihydro-1H-inden-1-yl)carbamate], the IC50 in assay [1] is 0.62 nM; in assay [2], 11.5 nM.

The values are drawn from patent publication US20240262819A1, “NOVEL COMPOUNDS HAVING INHIBITORY ACTIVITY AGAINST GLUCOSYLCERAMIDE SYNTHASE OR PHARMACEUTICALLY ACCEPTABLE SALT THEREOF, PROCESSES FOR PREPARING THE SAME, AND PHARMACEUTICAL COMPOSITIONS COMPRISING THE SAME” (YUHAN CORPORATION, priority 2021, published 2024).
